In patent US20250241893A1, “TREATMENT OF COGNITIVE DYSFUNCTION” (GH RESEARCH IRELAND LIMITED, priority 2022, published 2025):
Entries after “also recorded” stand apart in the source; their conditions may differ.

Legend:
[1] = test system: Salmonella typhimurium (TA98, TA100, TA1535 and TA1537); assay: Bacterial mutation test in Salmonella typhimurium; assay type: cell-based; settings: up to 5000 μg/plate, absence and presence of rat liver S-9
Experimental: (§1) These conditions included treatments at concentrations up to 5000 μg/plate (the maximum recommended concentration according to current regulatory guidelines), in the absence and in the presence of a rat liver metabolic activation system (S-9).

[2] = test system: Escherichia coli (WP2 uvrA pKM101); assay: Bacterial mutation test in Escherichia coli; assay type: cell-based; settings: up to 5000 μg/plate, absence and presence of rat liver S-9
Experimental: as §1

[3] = test system: patients with postpartum depression (PPD); assay: Clinical trial of inhaled 5-MeO-DMT in postpartum depression; settings: one PPD patient
Experimental: The single-arm, open-label clinical trial will involve 15 adult female patients with clinically diagnosed postpartum depression (PPD).
The second dose (12 mg) will only be administered if: • a. A peak experience (total score of • 75) has not been achieved following the 6 mg dose, and • b. The 6 mg dose was safe and well-tolerated according to the investigator, • c. Any psychoactive effects (PsE) of the prior dose have subsided, and • d. Pre-dose vital parameters and forced expiratory volume in one second (FEV1) are in normal range, or if outside of the normal range, are not clinically significant according to the investigator. • 3. Similarly, a third dose (18 mg) will only be administered if: • a. A peak experience (total score of • 75) has not been achieved following the 12 mg dose, and • b. The 12 mg dose was safe and well-tolerated according to the investigator, and • c. Any PsE of the prior dose have subsided, and • d. Pre-dose vital parameters and forced expiratory volume in one second (FEV1) are in normal range, or if outside of the normal range, are not clinically significant according to the investigator.
The patients will be assessed for a peak psychedelic experience (based on a patient-scored visual analogue scale, the PE scale), sedation, and other endpoints after dosing.
Follow-up visits are planned for Day 1, and Day 7 after the dosing day.
The following criteria must be met by all patients considered for clinical trial participation: • 1. Is female and in the age range between 18 and 45 years (inclusive) at screening. • 2. Has a body mass index (BMI) in the range of 18.5 and 35 kg/m^2 (inclusive) at screening. • 3. Meets the trial criteria for PPD as assessed by a trial psychiatrist or registered psychologist: • a. Diagnosis of Major Depressive Disorder without psychotic features, confirmed by the Mini-International Neuropsychiatric Interview (MINI), with peri-partum onset that began no earlier than gestation and no later than the first 4 weeks postpartum. • b. Has a Montgomery-Asberg Depression Rating Scale (MADRS) total score of equal to or greater than 28 at screening and pre-dose on Day 0. • 6. […] Patients must have a negative pregnancy test at screening and on the pre-test day (Day −1). • 5. Is willing to delay start of other antidepressant or anxiety medication until after the end of the trial at Day 7 and agrees to keep any psychotherapy unchanged during the trial.
A potential patient who meets any of the following key exclusion criteria will be excluded from participation in this trial: • 1. Has, based on history, psychiatric assessment, and evaluation of the MINI, a current or prior diagnosis of bipolar disorder, a manic or hypomanic episode, a psychotic disorder, Major Depressive Disorder (MDD) or other mood disorder with psychotic features, obsessive compulsive disorder, post-traumatic stress disorder (PTSD), autism spectrum disorder, borderline personality disorder, schizophrenia, delusional disorder, paranoid personality disorder, schizoaffective disorder, clinically significant intellectual disability, or any other psychiatric comorbidity that renders the patient unsuitable for the trial according to the investigator's judgment. • 2. Has one or more first or second degree relatives with a current or previously diagnosed bipolar disorder, psychotic disorder or other mood disorder (including MDD) with psychotic features. • 3. Is in the judgement of a trial psychiatrist or registered psychologist, at significant risk for suicide based on history, psychiatric assessment, and evaluation of suicidal ideation and suicidal behaviour based on the Columbia-Suicide Severity Rating Scale (C-SSRS). • 4. Has taken anti-depressive medication within 14 days or 5 half-lives (whichever is longer) prior to dosing (exception: within the last 5 weeks in the case of fluoxetine). • 5.

[4] = Pharmacokinetics of 5-MeO-DMT and bufotenine after inhalation; assay type: in vivo, human; settings: 3 hours after inhalation, whole dose range (6 mg, 12 mg, 18 mg)
Experimental: Blood samples were obtained at 1; 2; 4; 7; 10; 15; 20; 30; 45 min and 1; 1.5; 2; 3; 4 hours after administration. […] PK parameters were generated by algebraic analysis of the concentration versus time plots for each individual. The analysis was carried out using the software Phoenix WinNonlin 6.3.

Which Mutation induction [1] does the source give for COc1ccc2[nH]cc(CCN(C)C)c2c1 [5-MeO-DMT] here?
The Mutation induction was “did not induce mutation”.

What about the Mutation induction [2] of the same molecule?
Its Mutation induction is “did not induce mutation”.

What about the “ECG (3 hours), safety laboratory analyses (7 days), CADSS (3 hours, 1 day, 7 days)” value [3] of the same molecule?
Its value is “unremarkable”.

What about the “MADRS remission (MADRS total score equal or less than 10)” value [3] of the same molecule?
Its value is “fulfilled”.

What about the “MADRS response (at least 50% improvement from baseline)” value [3] of the same molecule?
The value was “fulfilled”.

And the “Reported adverse events (cramping left abdominal pain and headache, Day 0)” value [3]?
The value was “mild, short-lasting and resolved spontaneously”.

And the “Total MADRS improvement” value ([3]; 2 hr, baseline 29)?
The value was 24.

What about the “Total MADRS score” value ([3]; 2 hr, baseline 29) of the same molecule?
The value was 5.

And the “MADRS Lassitude score” value ([3]; Day 1, baseline 3)?
The value was 0.

And the “BPRS Tension improvement” value ([3]; Day 1, baseline 6)?
The value was 5.

And the “Total MADRS improvement” value ([3]; Day 1, baseline 29)?
Its value is 29.

And the “Total MADRS score” value ([3]; Day 1, baseline 29)?
The value was 0.

What about the “BIMF item 16 (I worry about how other people judge me (as a mother)) score” value ([3]; Day 7, Day 0 score 3) of the same molecule?
Its value is 5.

And the “BIMF item 10 (I trust my own feelings (instincts) when taking care of my baby) score” value ([3]; Day 7, Day 0 score 5)?
Its value is 6.

What about the “BIMF functional domain Adjustment score” value ([3]; Day 7, Day 0 score 5, maximum possible 12) of the same molecule?
Its value is 6.

What about the “BIMF functional domain Self Care score” value ([3]; Day 7, Day 0 score 9, maximum possible 18) of the same molecule?
Its value is 13.

And the “BIMF functional domain Infant Care score” value ([3]; Day 7, Day 0 score 12, maximum possible 12)?
The value was 12.

What about the “BIMF functional domain Mother-Child Interaction score” value ([3]; Day 7, Day 0 score 15, maximum possible 18) of the same molecule?
The value was 17.

And the “BIMF functional domain Social Support score” value ([3]; Day 7, Day 0 score 17, maximum possible 18)?
Its value is 18.

What about the “BIMF functional domain Management score” value ([3]; Day 7, Day 0 score 28, maximum possible 36) of the same molecule?
The value was 33.

And the “BIMF functional domain Psychological Well-being score” value ([3]; Day 7, Day 0 score 44, maximum possible 60)?
Its value is 53.

And the “Total MADRS improvement” value ([3]; Day 7, baseline 29)?
The value was 28.

What about the “Total MADRS score” value ([3]; Day 7, baseline 29) of the same molecule?
Its value is 1.

And the “BIMF total score percentage improvement” value ([3]; Day 7, from 92 to 105 (possible total 120))?
The value was 14%.

And the “BIMF TOTAL Δ (Day 7)” value ([3]; Day 7 vs Day 0)?
The value was 13.

And the “BIMF functional domain Adjustment % improvement” value ([3]; Day 7 vs Day 0)?
The value was 20.00%.

And the “BIMF functional domain Infant Care % improvement” value ([3]; Day 7 vs Day 0)?
The value was 0.00%.

And the “BIMF functional domain Management % improvement” value ([3]; Day 7 vs Day 0)?
The value was 18%.

What about the “BIMF functional domain Self Care % improvement” value ([3]; Day 7 vs Day 0) of the same molecule?
Its value is 44%.

What about the “Time to clinical remission after administration” value ([3]; IDR) of the same molecule?
The value was ≤ 2 h.

And the “Tolerability of inhaled 5-MeO-DMT” value ([3]; IDR 6 mg then 12 mg)?
The value was “well tolerated with no inhalation-related adverse events; also recorded: well tolerated”.

What about the “BPRS Tension improvement” value ([3]; discharge, baseline 6) of the same molecule?
The value was 5.

What about the “Changes in vital parameters” value ([3]; shortly after administration) of the same molecule?
Its value is “temporary, clinically non-relevant increase in heart rate and blood pressure”.

And the “Detectability in the plasma” value [4]?
Its value is “no longer detectable”.
